Results published in patent publication US20040211730A1, “Methods and compounds for controlling the morphology and shrinkage of silica derived from polyol-modified silanes” (priority 2002, published 2004).
Read-outs that look alike come from different tables or passages of the source.

Biological target: T1, Dihydrofolate reductase (DHFR) (Escherichia coli, UniProt P0ABQ4)
T1 construct: gift of Professor Eric Brown (McMaster University)
Format: binding, E. coli
Settings: for retention (elution) time: FIG. 19 Panel B, column with 50 pmol DHFR initial loading, compounds infused at 20 nM, fluorescein 100 nM; for elution time: first run
Experimental: A second aqueous solution of 50 mM HEPES at pH 7.5 was prepared containing 16% (w/v) PEO (MW=10 000) and 0.6% (v/v) APTES. This aqueous solution also contained ca. 20 μM of DHFR. […] The mixture underwent spinodal decomposition (phase separation) in about 2-3 min followed by silica polymerization (˜10 min) to generate a hydrated macroporous monolithic column containing entrapped protein. After loading the sol-gel mixture, the monolithic columns were aged for a minimum of 5 days at 4 C and then cut into 10 cm lengths before use. In some cases, the APTES present in the columns was replaced with a final concentration of either 0.03% polyallylamine (PAM, MW 17,000) or 0.3% dimethyldimethoxysilane (DMDMS) to examine the effects of surface derivatization on non-selective retention.
Syringe pumps (Harvard Instruments PhD 2000) were used to deliver solutions, and a flow-switching valve was used to toggle between the assay buffer and the solution containing the compound mixture. This solution was then pumped through the column to achieve equilibrium. Effluent was combined with suitable organic modifiers to assist in the generation of a stable electrospray and detectability of the sprayed components using a triple-quadrupole MS system (Sciex API 3000). This configuration allows for maximum flexibility in compound introduction. Full operation of FAC-MS methods requires frequent flow switching between two solutions connected to the head of the column. An Upchurch microinjection valve allows syringe contents to be exchanged during operation. […] All other connections between components were achieved using fused silica tubing.
Before the first run, the column was flushed with 0.05 M NH4OAc buffer (pH 6.6, 100 mM NaCl) for 30 min at different flow rates (from 1 to 5 μL.min^−1) to remove any glycerol and non-entrapped protein and then equilibrated with 2 mM NH4OAc for 30 min at different flow rates (from 1 to 5 μL.min^−1). All compounds tested were present in 2 mM NH4OAc and were delivered at a rate of 5 μL.min^−1 using the syringe pump. The makeup flow (used to assist in the generation of a stable electrospray) consisted of methanol containing 10% (v/v) NH4OAc buffer (2 mM) and was delivered at 5 μL.min^−1.
In each case, the data were fit to the following equation:^17 [formula]
where V0 is the void volume (μL), V is the retention volume (μL), [A] is the analyte concentration (μM), Kd is the binding constant of the ligand to the protein (μM) and Bt is the total picomoles of active protein in the column.

[1] = FIG. 21 Panel A, in 2 mM ammonium acetate
[2] = FIG. 21 Panel B, second column cut from the same capillary, same infusion

SMILES	retention (elution) time [min]	elution time [1] [min]	elution time [2] [min]
O=c1ccc2ccccc2o1 [coumarin]	2	2.7	2.6
Nc1nc2ncc(CNc3ccc(C(=O)N[C@@H](CCC(=O)O)C(=O)O)cc3)nc2c(=O)[nH]1 [folic acid]	7	8.9	8.4
